This note sets out measurements from US20250109120A1, “INDOLINE DERIVATIVES FOR TREATMENT AND/OR PREVENTION OF TUMOR OR CELL PROLIFERATIVE AND FIBROSIS DISEASES” (NATIONAL TAIWAN UNIVERSITY, priority 2023, published 2025).

Structures are written as SMILES.

Series [1] deals with CDK8 (Homo sapiens (Human), UniProt P49336). The series can be described thus: LanthaScreen Eu Binding Assay, Thermo Fisher SelectScreen kinase service. The method, then: Compounds were tested for kinase inhibitory activity using the Thermo Fisher SelectScreen service (www.thermofisher.com/selectscreen). For CDK8, the LanthaScreen Eu Binding Assay was used. Briefly, the assay employed utilizes a fluorescent tracer to a given kinase. This is used to detect the addition of an anti-tag antibody. When the tracer and antibody bind to the targeted kinase, the Forster resonance energy transfer is measured. When a kinase inhibitor is added to the assay, the tracer/kinase binding will be disrupted, producing low FRET detection and indicating kinase inhibitory activity. Evaluation of kinase activity of additional kinase targets utilized the LanthaScreen binding assay or the Z′-Lyte activity assay provided by Thermo Fisher SelectScreen service. The IC50 values were determined using sequential doses, and the inhibition curves were provided by Thermo Fisher Scientific.
The fragment-based drug design strategy in this study led to optimized CDK8 inhibitors with promising results. CDK8-inhibitory activities of the compounds (a-n) designed by this fragment-based drug design strategy were tested using the SelectScreen kinase service of ThermoFisher Scientific. The inhibitory effects of the 14 compounds and the referenced compound were tested at a concentration of 10 μM.

The subject of series [2] is DU145 cells. The series can be described thus: MTT cell cytotoxicity assay. The class given is cell-based, human. The method, then:
(§1) FIGS. 2A-2D show the evaluation of CDK8 inhibition by compound k. […] Cell viability was measured by MTT assay, and the 50% inhibitory concentration (IC50) values were calculated by a sigmoidal dose-response equation. […] Whole-cell lysates were subjected to western blotting with the indicated antibodies. The results are shown as the mean t SEM from at least three independent experiments (*p<0.05, **p<0.01, and ***p<0.001 vs. control group; #p<0.05 vs. relevant control).
(§2) Cell cytotoxicity was evaluated using the MTT assay. […] Then, 0.5 mg/mL MTT was added, and the plates were incubated for an additional 2 h at 37° C. The cells were then pelleted and lysed in 100 μL of dimethyl sulfoxide, and the absorbance at 550 nm was measured with a microplate reader.

Series [3] concerns PC-3 cells. The series can be described thus: MTT cell cytotoxicity assay. The format is cell-based, human. The protocol: as §1, §2
Series [4] relates to DU145 cells. In words: TGF-β1-induced morphology change and wound migration. Conditions: TGF-β1 10 ng/mL. The class given is cell-based, human. The protocol:
Images of the morphology of cells were taken at ×100 magnification. […] The cells were incubated with or without TGF-β1 (10 ng/mL) and compound k (2.5 and 10 μM), allowed to migrate into the wound area for 48 h and photographed. Cell migration into the wound was quantified using ImageJ software; the white solid line indicates time zero. The quantitative assessment of the mean number of cells in the scratch area is expressed as the mean t SEM from at least three independent experiments (***p<0.001 vs. control group; ##p<0.01 and ###p<0.001 vs. TGF-β1 treatment group). (C) PC-3 cells were incubated with 10 μM compound k/senexin A for 1 h, subsequently treated with TGF-β1 (10 ng/mL) for 24 h and incubated with the indicated antibodies and DAPI. The immunofluorescence images were photographed by a ZEISS ApoTome.2 microscope. Images were taken at 600× magnification.

Series [5] concerns DU145 cells. In words: TGF-β/Smad/RNA polymerase II signaling, western blot, fractionation, immunoprecipitation. The format is cell-based, human. Conditions: 10 μM. The method, then: Whole-cell lysates were subjected to western blotting with the indicated antibodies. […] The proteins in the cytosol and nucleus were detected by western blotting analysis, and the proteins expression in the nucleus were quantified. […] The results are shown as the mean±SEM from at least three independent experiments (*p<0.05, **p<0.01, and ***p<0.001 vs. control group; #p<0.05, ##p<0.01, and ###p<0.001 vs. TGF-β1 treatment group; § p<0.05, §§ p<0.01 vs. indicated group).
(§3) The cells were incubated in lysis buffer for 10 min at 4° C., scraped off, incubated on ice for an additional 10 min and then centrifuged at 17,000 g for 30 min at 4° C. Protein samples were electrophoresed on SDS-PAGE gels, transferred to PVDF membranes and blocked with 5% fat-free milk in PBS for 30 min at room temperature. Immunoblotting was performed overnight with primary antibodies in PBS at 4° C., followed by incubation with HRP-conjugated secondary antibodies for 1 h at room temperature. Bound antibodies will be measured using an ECL reagent and exposed to a photographic film. In the immunoprecipitation assay, cell lysates were immunoprecipitated with 1 μg of antibody and A/G agarose beads overnight at 4° C. After washing the precipitated beads three times with 1 mL ice-cold cell lysis buffer, bound immune complexes were separated by 10% SDS-PAGE and analyzed with immunoblotting.

In series [6] the test system is DU145 cells. In words: LiCl-induced β-catenin signaling, western blot. Conditions: LiCl 20 mM; senexin A 10 μM. The class given is cell-based, human. The method, then:
(§4) Inhibitory phosphorylation of GSK3β was evaluated through western blotting. […] Whole-cell lysates were subjected to western blotting with the indicated antibodies. FIGS. 11J-11K show the comparison of basal activities of the Akt/GSK3β axis between PC-3 and DU145 cells. […] The results are shown as the mean±SEM from at least three independent experiments (*p<0.05, **p<0.01, ***p<0.001 vs. control group; #p<0.05, ##p<0.01, and ###p<0.001 vs. relevant control).
as §3

The subject of series [7] is PC-3 cells. In words: β-catenin target protein expression, western blot. The class given is cell-based, human. Conditions: 24 h. The protocol:
as §4, §3

Series [8] relates to PC-3 cells. The series can be described thus: PC-3 SCID mouse model. The class given is in vivo, mice. Conditions: oral, 50 mg/kg q.d., 31 days. The method, then:
PC-3 cells (1×10^7 cells) were injected subcutaneously into the flanks of 7-week-old male SCID mice and treated with vehicle or compound k (50 mg/kg) q.d. for 31 days. […] Tumors were excised from each mouse after a 31-day treatment. […] The length is represented by the scale bar as indicated.
as §3
Tissue sections underwent dewaxing and rehydration. Antigen retrieval was performed by autoclaving the slides in Trilogy solution (Cell Marque, Hot Springs, AR) at 121° C. for 10 min. The slides were blocked with 3% H2O2 and 5% fetal bovine serum, incubated with primary antibodies at 4° C. overnight, and then treated with polymer-HRP reagent (Dako Cytomation, Glostrup, Denmark). activity Peroxidase was visualized using diamino-benzidine tetrahydrochloride solution (DAKO), and sections were counterstained with hematoxylin. Dark brown nuclear staining was defined as positive, no staining was defined as negative.

Chain of CDK8 (P49336 whole entry, looked up): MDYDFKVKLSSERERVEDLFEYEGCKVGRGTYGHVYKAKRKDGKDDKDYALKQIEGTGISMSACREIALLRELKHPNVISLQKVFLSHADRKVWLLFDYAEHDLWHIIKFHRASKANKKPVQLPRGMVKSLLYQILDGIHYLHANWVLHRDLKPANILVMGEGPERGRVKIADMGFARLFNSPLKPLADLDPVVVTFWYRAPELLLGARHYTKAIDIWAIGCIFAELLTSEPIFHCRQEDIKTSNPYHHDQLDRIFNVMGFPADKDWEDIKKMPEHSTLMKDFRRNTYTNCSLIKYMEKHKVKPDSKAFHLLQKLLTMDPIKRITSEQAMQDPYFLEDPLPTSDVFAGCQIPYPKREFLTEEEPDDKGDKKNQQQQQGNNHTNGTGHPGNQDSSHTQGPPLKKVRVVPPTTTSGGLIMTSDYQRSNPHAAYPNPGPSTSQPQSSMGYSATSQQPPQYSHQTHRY
Chain of CDK8 (P24863 whole entry partner, looked up): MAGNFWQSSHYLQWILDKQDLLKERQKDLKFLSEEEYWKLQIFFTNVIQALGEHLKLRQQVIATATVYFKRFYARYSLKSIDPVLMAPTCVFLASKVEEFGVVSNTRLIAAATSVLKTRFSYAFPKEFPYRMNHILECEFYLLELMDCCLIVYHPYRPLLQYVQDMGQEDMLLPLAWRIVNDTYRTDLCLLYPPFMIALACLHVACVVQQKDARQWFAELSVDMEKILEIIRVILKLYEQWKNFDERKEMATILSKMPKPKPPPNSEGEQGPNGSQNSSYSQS

For `CNC(=O)c1cc(Oc2ccc(NS(=O)(=O)c3ccc4c(c3)C(=C(C)C)C(=O)N4)c(F)c2)ccn1` [Compound k, 4-(3-Fluoro-4-((2-oxo-3-(propan-2-ylidene)indoline)-5-sulfonamido)phenoxy)-N-methylpicolinamide], in series [1] (150 nM, 54-kinase panel), the CDK8 inhibition percentage is recorded as 64%. In addition, the “CDK8 Inhibition percentage at 10 μM” value in series [1] (10 μM) stood at 102%. Further, the IC50 in series [1] (read-out: Inhibition of CDK8 IC50) came to 0.129 µM. In addition, the “higher inhibitory potency compared to compound j” value in series [1] (vs compound j) is ~1.5 fold. The “increase in CDK8 inhibitory activity compared to E966-0530” value in series [1] (vs original compound E966-0530) is recorded as 13 fold. The IC50 in series [2] (DU145, 24 h) is > 30 µM. Also, the IC50 in series [2] (DU145, 72 h) is > 30 µM. The IC50 in series [3] (PC-3, 24 h) is > 30 µM. Also, in series [3] (PC-3, 72 h), the 50% inhibitory concentration (IC50) was > 30 µM. Also, the “TGF-β1-induced migration (wound closure)” value in series [4] (2.5 and 10 μM, 48 h) is “significantly inhibited”. For the same compound, in series [4] (24 h), the TGF-β1-induced morphological transition result is “appeared to reverse these effects”. In series [5] (TGF-β1 10 ng/mL), the “binding of CDK8 to RNA polymerase II (Ser2/5), Smad3 and Pin1 (immunoprecipitation)” value is “inhibited”. For the same compound, the “phosphorylation of Smad3 and RNA polymerase II in nuclear fraction” value in series [5] (TGF-β1 10 ng/mL 1 h) is on record as “markedly suppressed”. Moreover, the “expression of mesenchymal markers (N-cadherin, Snail)” value in series [5] (TGF-β1 10 ng/mL 24 h) is recorded as “significantly downregulated”. Besides, in series [6], the “levels of active form of β-catenin and Snail” value is “reduced the levels”. Also, in series [7], the Snail expression result is “markedly inhibited”. In series [8], the “binding of CDK8 and p-Smad3 (Thr179), tumor immunoprecipitation” value is “markedly inhibited”; the body weight changes result was “no apparent body weight changes”; the “expression of EMT proteins, α-SMA, p-Smad3 (Thr179), active β-catenin, p-STAT1 Ser727 in tumor immunoblots” value is recorded as “markedly inhibited”; the “interaction of CDK8 and MED12, tumor immunoprecipitation” value was “did not affect”. For the same compound, in series [8], the “tumor margin, H&E staining” value was “distinct boundary”; the “vimentin, N-cadherin and Snail levels, IHC staining of tumors” value is “significantly decreased”.
